Experimental data from PMC2726771 (The Journal of neuroscience : the official journal of the …, 2009).

Tests used:
Format in all cases: cell-based
[1] = molecular target: α3A106Cβ2 nAChR (Rattus norvegicus, UniProt P04757+P12390, A133C); details: Hill coefficient
[2] = molecular target: α3β2S148C nAChR (Rattus norvegicus, UniProt P04757+P12390, S174C); details: Hill coefficient
[3] = molecular target: α3T115Cβ2 nAChR (Rattus norvegicus, UniProt P04757+P12390, T142C); details: Hill coefficient
[4] = molecular target: α3β2 wt nAChR (Rattus norvegicus, UniProt P04757+P12390); details: Hill coefficient
[5] = molecular target: α3β2S192C nAChR (Rattus norvegicus, UniProt P04757+P12390, S218C); details: Hill coefficient
[6] = molecular target: α3β2T150C nAChR (Rattus norvegicus, UniProt P04757+P12390, T176C)
[7] = molecular target: α3S161Cβ2 nAChR (Rattus norvegicus, UniProt P04757+P12390, S188C); details: Hill coefficient
[8] = molecular target: α3β2T193C nAChR (Rattus norvegicus, UniProt P04757+P12390, T219C); details: Hill coefficient
Sequence of α3β2T193C nAChR (P04757 26-499): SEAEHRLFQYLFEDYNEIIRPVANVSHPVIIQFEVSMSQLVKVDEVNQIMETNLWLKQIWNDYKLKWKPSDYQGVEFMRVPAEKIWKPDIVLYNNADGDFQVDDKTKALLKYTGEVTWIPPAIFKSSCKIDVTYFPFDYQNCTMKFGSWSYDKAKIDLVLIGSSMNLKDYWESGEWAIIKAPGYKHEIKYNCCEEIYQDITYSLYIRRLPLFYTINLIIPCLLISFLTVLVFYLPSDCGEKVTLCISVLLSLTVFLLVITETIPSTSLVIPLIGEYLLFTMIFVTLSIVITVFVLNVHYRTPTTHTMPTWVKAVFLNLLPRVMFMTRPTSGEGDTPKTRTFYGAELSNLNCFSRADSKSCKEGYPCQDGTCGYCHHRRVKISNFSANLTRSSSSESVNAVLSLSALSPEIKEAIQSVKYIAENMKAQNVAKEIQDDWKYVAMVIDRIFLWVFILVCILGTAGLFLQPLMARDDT
Sequence of α3β2T193C nAChR (P12390 25-500 T219C): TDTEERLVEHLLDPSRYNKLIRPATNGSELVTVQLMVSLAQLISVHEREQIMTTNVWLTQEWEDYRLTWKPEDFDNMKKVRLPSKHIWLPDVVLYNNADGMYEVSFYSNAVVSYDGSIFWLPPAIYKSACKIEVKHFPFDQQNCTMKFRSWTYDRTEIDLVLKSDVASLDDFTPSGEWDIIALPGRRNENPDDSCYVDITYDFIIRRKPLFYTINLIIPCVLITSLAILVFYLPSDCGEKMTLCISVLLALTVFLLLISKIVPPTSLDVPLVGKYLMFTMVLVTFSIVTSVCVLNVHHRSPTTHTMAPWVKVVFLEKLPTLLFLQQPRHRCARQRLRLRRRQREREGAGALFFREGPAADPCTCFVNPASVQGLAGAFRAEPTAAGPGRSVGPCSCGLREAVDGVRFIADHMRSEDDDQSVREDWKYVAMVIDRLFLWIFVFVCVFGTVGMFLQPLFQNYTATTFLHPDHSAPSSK

Sequence of α3β2T150C nAChR (P04757 26-499): as the sequence (P04757 26-499) above
Sequence of α3β2T150C nAChR (P12390 25-500 T176C): as the sequence (P12390 25-500 T219C) above, with T152C, C195T counted along it
Sequence of α3T115Cβ2 nAChR (P04757 26-499 T142C): as the sequence (P04757 26-499) above, with T117C counted along it
Sequence of α3T115Cβ2 nAChR (P12390 25-500): as the sequence (P12390 25-500 T219C) above, with C195T counted along it
Sequence of α3A106Cβ2 nAChR (P04757 26-499 A133C): as the sequence (P04757 26-499) above, with A108C counted along it
Sequence of α3A106Cβ2 nAChR (P12390 25-500): as the sequence (P12390 25-500 T219C) above, with C195T counted along it
Sequence of α3S161Cβ2 nAChR (P04757 26-499 S188C): as the sequence (P04757 26-499) above, with S163C counted along it
Sequence of α3S161Cβ2 nAChR (P12390 25-500, stated change not applied): as the sequence (P12390 25-500 T219C) above, with C195T counted along it
Sequence of α3β2S148C nAChR (P04757 26-499): as the sequence (P04757 26-499) above
Sequence of α3β2S148C nAChR (P12390 25-500 S174C): as the sequence (P12390 25-500 T219C) above, with S150C, C195T counted along it
Sequence of α3β2S192C nAChR (P04757 26-499): as the sequence (P04757 26-499) above
Sequence of α3β2S192C nAChR (P12390 25-500 S218C): as the sequence (P12390 25-500 T219C) above, with S194C, C195T counted along it
Sequence of α3β2 wt nAChR (P04757 26-499): as the sequence (P04757 26-499) above
Sequence of α3β2 wt nAChR (P12390 25-500): as the sequence (P12390 25-500 T219C) above, with C195T counted along it

ACh Response nH [1]	ACh Response nH [2]	ACh Response nH [3]	ACh Response nH [4]	ACh Response nH [5]	ACh nH, +Mor data set, pre-treatment ([6]; ACh + 10 μM Mor)	ACh nH, +Mor data set, post-treatment ([6]; ACh + 10 μM Mor, after 100 μM MTSET + 200 μM ACh)	ACh Emax, +Mor data set, pre-treatment ([6]; ACh + 10 μM Mor, normalized to ACh response at 1000 μM)	ACh Response nH ([6]; Hill coefficient, pre-treatment in Fig. 4)	ACh nH post-treatment ([6]; after 100 μM MTSET + 200 μM ACh)	ACh Emax post-treatment ([6]; after 100 μM MTSET + 200 μM ACh, normalized to ACh response at 1000 μM)	ACh Emax pre-treatment ([6]; normalized to ACh response at 1000 μM)	ACh Response nH [7]	ACh Response nH [8]	SMILES	reduction of maximum Mor-evoked current (efficacy) ([6]; after 100 μM reagent, four 30-sec doses)
0.64 ± 0.04	0.79 ± 0.08	0.96 ± 0.09	0.82 ± 0.06	0.57 ± 0.05	1.13 ± 0.24	0.98 ± 0.02	1.33 ± 0.05	0.84 ± 0.06	0.79 ± 0.11	0.26 ± 0.01	1.00	0.77 ± 0.07	0.74 ± 0.07	CC(=O)OCC[N+](C)(C)C [ACh]	–
–	–	–	–	–	–	–	–	–	–	–	–	–	–	C[N+](C)(C)CCOC(=O)CBr [BrACh]	very little effect
